The nature of data set [1]: 1 mg/kg was administered intravenously in anesthetized rats and the concentration in plasma was determined after 60 minutes. To be noted: rat, iv.
Data set [2] is described as follows: 1 mg/kg was administered intravenously in anesthetized rats and the concentration in plasma was determined after 120 minutes. To be noted: rat, iv.
Data set [3] deals with Plasminogen (Homo sapiens, UniProt P00747). Kind of data set: Inhibitory activity against Plasmin.
The nature of data set [4]: 50 mg/kg was administered orally in anesthetized rats and the concentration in plasma was determined after 30 minutes. The settings on record: rat, po.
A short description of data set [5]: 1 mg/kg was administered intravenously in anesthetized rats and the concentration in plasma was determined after 180 minutes. The settings on record: rat, iv.
The target of data set [6] is Vitamin K-dependent protein C (Homo sapiens, UniProt P04070). Kind of data set: Inhibitory activity against Activated protein C.
Vitamin K-dependent protein C, sequence (P04070 43-197 limits assumed): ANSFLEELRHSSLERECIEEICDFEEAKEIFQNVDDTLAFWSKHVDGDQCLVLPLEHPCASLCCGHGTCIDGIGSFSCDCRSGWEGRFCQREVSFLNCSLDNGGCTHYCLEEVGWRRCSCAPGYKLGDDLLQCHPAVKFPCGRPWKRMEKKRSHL
Vitamin K-dependent protein C, sequence (P04070 212-461 limits assumed): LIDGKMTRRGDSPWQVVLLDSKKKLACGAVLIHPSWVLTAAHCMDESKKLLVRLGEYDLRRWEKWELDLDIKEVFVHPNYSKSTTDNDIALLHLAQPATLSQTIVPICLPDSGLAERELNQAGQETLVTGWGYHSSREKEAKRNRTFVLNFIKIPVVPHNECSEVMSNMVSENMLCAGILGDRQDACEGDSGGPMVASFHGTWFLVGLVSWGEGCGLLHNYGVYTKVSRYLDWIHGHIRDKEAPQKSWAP
A short description of data set [7]: 50 mg/kg was administered orally in anesthetized rats and the concentration in plasma was determined after 180 minutes. To be noted: rat, po.
Data set [8] has as its target Coagulation factor X (Bos taurus, UniProt P00743). Kind of data set: Inhibitory activity against coagulation factor X.
In data set [9] the target is T1, Urokinase-type plasminogen activator (Homo sapiens, UniProt P00749). Kind of data set: Inhibitory activity against UK.
Data set [10] can be described thus: 50 mg/kg was administered orally in anesthetized rats and the concentration in plasma was determined after 45 minutes. Format: ADME, organism-based. To be noted: rat, po, read-out: Activity.
Data set [11] is described as follows: 1 mg/kg was administered intravenously in anesthetized rats and the concentration in plasma was determined after 5 minutes. The settings on record: rat, iv.
The target of data set [12] is T2, Plasma kallikrein (Homo sapiens, UniProt P03952). The experiment in a line: Inhibitory activity against Kallikrein (PK).
T2 sequence (P03952 20-390 limits assumed): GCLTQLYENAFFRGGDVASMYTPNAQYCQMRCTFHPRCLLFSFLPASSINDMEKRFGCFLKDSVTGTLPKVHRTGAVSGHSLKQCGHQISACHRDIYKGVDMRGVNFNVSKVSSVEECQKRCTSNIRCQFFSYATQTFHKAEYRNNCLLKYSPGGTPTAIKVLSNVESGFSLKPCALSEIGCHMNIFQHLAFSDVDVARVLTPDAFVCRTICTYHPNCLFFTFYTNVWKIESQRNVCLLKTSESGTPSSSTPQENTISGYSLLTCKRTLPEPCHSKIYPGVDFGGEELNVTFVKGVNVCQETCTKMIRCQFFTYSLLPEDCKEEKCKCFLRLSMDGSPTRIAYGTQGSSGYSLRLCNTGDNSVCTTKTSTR
T2 sequence (P03952 391-638 limits assumed): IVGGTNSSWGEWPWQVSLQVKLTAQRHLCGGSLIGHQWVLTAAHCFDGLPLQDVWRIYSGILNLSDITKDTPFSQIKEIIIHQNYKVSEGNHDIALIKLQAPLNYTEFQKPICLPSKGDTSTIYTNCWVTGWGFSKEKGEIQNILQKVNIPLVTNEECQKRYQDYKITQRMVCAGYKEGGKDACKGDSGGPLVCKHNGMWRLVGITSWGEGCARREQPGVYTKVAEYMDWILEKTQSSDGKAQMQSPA
Data set [13] concerns the target T3, Serine protease 1 (Bos taurus, UniProt P00760).
T3 sequence (P00760 whole entry): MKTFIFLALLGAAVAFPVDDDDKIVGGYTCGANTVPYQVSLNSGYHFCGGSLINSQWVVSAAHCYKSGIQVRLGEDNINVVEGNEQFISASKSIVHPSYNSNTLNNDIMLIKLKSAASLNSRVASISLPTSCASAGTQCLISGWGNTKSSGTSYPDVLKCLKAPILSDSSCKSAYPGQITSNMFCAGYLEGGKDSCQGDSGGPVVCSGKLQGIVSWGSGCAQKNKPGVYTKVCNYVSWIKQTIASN
Kind of data set: Inhibitory activity against trypsin.

Data set [14] can be described thus: 50 mg/kg was administered orally in anesthetized rats and the concentration in plasma was determined after 5 minutes. It counts as ADME, organism-based. The settings on record: rat, po, read-out: Activity.
The nature of data set [15]: 1 mg/kg was administered intravenously in anesthetized rats and the concentration in plasma was determined after 240 minutes. To be noted: rat, iv.
A short description of data set [16]: Concentration for doubling of thrombin time. Format: functional, Homo sapiens.
Data set [17] in a line: 1 mg/kg was administered intravenously in anesthetized rats and the concentration in plasma was determined after 90 minutes. The settings on record: rat, iv.
Data set [18] is described as follows: 1 mg/kg was administered intravenously in anesthetized rats and the concentration in plasma was determined after 30 minutes. To be noted: rat, iv.
Data set [19] deals with Tissue-type plasminogen activator (Homo sapiens, UniProt P00750). The experiment in a line: Inhibitory activity against single-chain tissue-type plasminogen activator (sc-tissue plasminogen activator).
Tissue-type plasminogen activator, sequence (P00750 whole entry): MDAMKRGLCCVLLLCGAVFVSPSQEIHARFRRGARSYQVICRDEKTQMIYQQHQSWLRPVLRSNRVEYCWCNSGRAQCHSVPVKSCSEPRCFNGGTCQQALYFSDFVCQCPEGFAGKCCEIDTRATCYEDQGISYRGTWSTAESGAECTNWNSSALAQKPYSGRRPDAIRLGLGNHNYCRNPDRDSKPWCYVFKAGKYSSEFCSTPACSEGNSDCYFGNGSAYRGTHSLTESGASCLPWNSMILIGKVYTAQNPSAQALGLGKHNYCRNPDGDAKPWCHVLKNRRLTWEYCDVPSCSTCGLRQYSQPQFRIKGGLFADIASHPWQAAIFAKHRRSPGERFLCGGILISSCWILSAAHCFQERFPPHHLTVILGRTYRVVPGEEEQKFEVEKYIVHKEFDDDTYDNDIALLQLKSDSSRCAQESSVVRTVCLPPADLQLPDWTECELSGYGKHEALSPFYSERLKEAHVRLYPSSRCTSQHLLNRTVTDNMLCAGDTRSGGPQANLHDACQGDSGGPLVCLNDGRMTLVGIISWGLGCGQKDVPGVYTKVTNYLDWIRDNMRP
The nature of data set [20]: 50 mg/kg was administered orally in anesthetized rats and the concentration in plasma was determined after 120 minutes. The settings on record: rat, po.
Data set [21] can be described thus: Concentration for doubling of prothrombin time. It counts as functional, Homo sapiens.
A short description of data set [22]: 1 mg/kg was administered intravenously in anesthetized rats and the concentration in plasma was determined after 45 minutes. To be noted: rat, iv.
The nature of data set [23]: 50 mg/kg was administered orally in anesthetized rats and the concentration in plasma was determined after 90 minutes. The settings on record: rat, po, read-out: Activity. It counts as ADME, organism-based.
Data set [24] can be described thus: 50 mg/kg was administered orally in anesthetized rats and the concentration in plasma was determined after 60 minutes. To be noted: rat, po.
Data set [25] is described as follows: Concentration for doubling of partial thromboplastin time. Format: functional, Homo sapiens.
A short description of data set [26]: 1 mg/kg was administered intravenously in anesthetized rats and the concentration in plasma was determined after 2 minutes. To be noted: rat, iv.
The target of data set [27] is T4, Coagulation factor XII (Homo sapiens, UniProt P00748).
T4 sequence (P00748 whole entry): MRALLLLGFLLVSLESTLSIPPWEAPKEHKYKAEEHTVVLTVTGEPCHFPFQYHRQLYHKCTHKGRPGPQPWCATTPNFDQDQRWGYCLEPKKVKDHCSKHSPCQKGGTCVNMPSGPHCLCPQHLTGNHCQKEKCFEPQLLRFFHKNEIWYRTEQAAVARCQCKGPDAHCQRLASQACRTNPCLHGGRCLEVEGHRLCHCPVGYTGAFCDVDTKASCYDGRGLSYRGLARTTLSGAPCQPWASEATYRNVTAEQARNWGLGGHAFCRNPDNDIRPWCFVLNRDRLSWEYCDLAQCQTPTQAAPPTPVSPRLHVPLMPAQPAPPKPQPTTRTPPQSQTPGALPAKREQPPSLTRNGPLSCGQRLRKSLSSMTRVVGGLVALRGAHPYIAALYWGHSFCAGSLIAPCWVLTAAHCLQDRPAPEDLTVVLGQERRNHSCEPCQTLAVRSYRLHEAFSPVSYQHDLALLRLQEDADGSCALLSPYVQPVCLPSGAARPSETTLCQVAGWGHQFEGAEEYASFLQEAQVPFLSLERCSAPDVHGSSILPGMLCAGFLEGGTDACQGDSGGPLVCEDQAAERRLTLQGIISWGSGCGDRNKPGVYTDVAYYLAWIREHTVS
The experiment in a line: Inhibitory activity against Coagulation factor XII.

The nature of data set [28]: 50 mg/kg was administered orally in anesthetized rats and the concentration in plasma was determined after 15 minutes. The settings on record: rat, po, read-out: Activity. It counts as ADME, organism-based.
Data set [29] in a line: 1 mg/kg was administered intravenously in anesthetized rats and the concentration in plasma was determined after 15 minutes. To be noted: rat, iv.
In data set [30] the target is T5, Prothrombin (Bos taurus, UniProt P00735).
In data set [31] the target is T5, Prothrombin. Kind of data set: Inhibitory activity against thrombin.
Data set [32] has as its target T2, Plasma kallikrein. The experiment in a line: Inhibitory activity against plasma kallikrein (PK.). Format: cell-free.
Data set [33] deals with T1, Urokinase-type plasminogen activator. The experiment in a line: Inhibitory activity against urokinase (UK ).

Plasminogen, sequence (P00747 97-580 limits assumed): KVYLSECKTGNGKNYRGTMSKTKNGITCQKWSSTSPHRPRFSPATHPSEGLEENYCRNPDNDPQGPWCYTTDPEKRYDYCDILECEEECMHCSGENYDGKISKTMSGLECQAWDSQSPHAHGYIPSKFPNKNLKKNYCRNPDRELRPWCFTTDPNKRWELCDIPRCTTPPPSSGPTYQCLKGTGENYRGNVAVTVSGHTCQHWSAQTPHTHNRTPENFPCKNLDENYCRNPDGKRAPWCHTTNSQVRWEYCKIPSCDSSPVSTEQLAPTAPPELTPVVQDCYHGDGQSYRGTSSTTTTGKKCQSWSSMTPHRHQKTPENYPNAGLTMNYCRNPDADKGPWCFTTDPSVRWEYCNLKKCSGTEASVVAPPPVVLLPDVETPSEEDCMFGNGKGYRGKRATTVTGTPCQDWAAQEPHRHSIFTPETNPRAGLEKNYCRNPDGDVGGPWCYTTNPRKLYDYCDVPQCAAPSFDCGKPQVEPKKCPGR
Plasminogen, sequence (P00747 581-810 limits assumed): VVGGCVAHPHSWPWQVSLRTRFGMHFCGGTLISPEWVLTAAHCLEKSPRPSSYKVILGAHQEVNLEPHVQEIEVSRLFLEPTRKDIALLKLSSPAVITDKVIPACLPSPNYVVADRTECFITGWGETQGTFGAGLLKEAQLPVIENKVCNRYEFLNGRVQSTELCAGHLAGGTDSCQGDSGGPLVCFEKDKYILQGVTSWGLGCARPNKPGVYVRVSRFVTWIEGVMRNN
Coagulation factor X, sequence (P00743 41-180 limits assumed): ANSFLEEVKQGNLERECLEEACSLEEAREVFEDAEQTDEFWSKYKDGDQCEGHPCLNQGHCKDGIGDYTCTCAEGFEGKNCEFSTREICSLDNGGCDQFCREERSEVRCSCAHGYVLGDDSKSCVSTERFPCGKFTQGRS
Coagulation factor X, sequence (P00743 234-492 limits assumed): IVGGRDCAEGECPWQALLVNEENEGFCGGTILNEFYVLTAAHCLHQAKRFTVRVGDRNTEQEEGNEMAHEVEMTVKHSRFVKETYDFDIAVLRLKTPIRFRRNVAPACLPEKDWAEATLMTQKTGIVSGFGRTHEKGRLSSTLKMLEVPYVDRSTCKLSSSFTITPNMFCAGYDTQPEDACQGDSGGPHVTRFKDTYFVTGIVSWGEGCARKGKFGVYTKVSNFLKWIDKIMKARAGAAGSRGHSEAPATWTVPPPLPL

For orientation: Ki means a measure of affinity in units of concentration, obtained from inhibition or displacement. Low values mean a stronger hold on the target, high ones a looser hold on the target. In general, IC50 refers to the midpoint of a concentration-inhibition curve. Lower therefore signals greater potency in that assay. With `CC(=O)N1CCN(C(=O)[C@@H](Cc2cccc(C(=N)N)c2)NS(=O)(=O)c2ccc3ccccc3c2)CC1`, the concentration at 1 h in data set [1] is 130 ng/mL; in data set [24], 380 ng/mL. The figures for the concentration at 2 h in data set [2] and in data set [20] were 90 ng/mL and 260 ng/mL, respectively. Moreover, the Ki in data set [3] amounted to 5.2 µM; in [6], 12 µM; in data set [8], 34 µM; in data set [9] it was 32 µM; in data set [12] it was 15 µM; in data set [13] it was 0.044 µM. Also, the inhibitory constant (Ki) was found to be 410 µM in data set [19] and 200 µM in [27]. In addition, the concentration at 0.5 h was found to be 450 ng/mL in data set [4] and 270 ng/mL in data set [18]. Besides, the concentration at 3 h was under 40 ng/mL in data set [5] and 300 ng/mL in [7]. The concentration at 0.75 h in data set [10] stood at 410 ng/mL; in data set [22], 170 ng/mL. In addition, the concentration at 5 min in data set [11] came out at 2080 ng/mL; in data set [14] it was 230 ng/mL. The compound also displayed a concentration at 4 h in data set [15] of under 40 ng/mL. Also, the IC50 stood at 0.062 µM in data set [16], 0.76 µM in data set [21] and 0.28 µM in [25]. Further, the concentration at 1.5 h in [17] is 100 ng/mL; in [23], 270 ng/mL. Also, the concentration at 2 min in data set [26] amounted to 3550 ng/mL. Also, the concentration at 0.25 h in data set [28] turned out to be 410 ng/mL; in data set [29], 610 ng/mL.
Consider `N=C(N)c1cccc(C[C@@H](NS(=O)(=O)c2ccc3ccccc3c2)C(=O)N2CCN(CCO)CC2)c1`, for which the inhibition constant Ki in data set [3] worked out at 21 µM; in data set [6], 39 µM; in data set [8] it was 22 µM; in data set [9], 140 µM; in data set [12] it was 27 µM; in data set [30] it was 0.037 µM. Also, the inhibition constant (Ki) in data set [13] was determined as 0.6 µM; in data set [19] it was 180 µM; in [27], 400 µM. Also, the IC50 in [16] came to 0.14 µM; in data set [21], 1.1 µM; in data set [25], 0.56 µM.
Regarding `CS(=O)(=O)N1CCN(C(=O)[C@@H](Cc2cccc(C(=N)N)c2)NS(=O)(=O)c2ccc3ccccc3c2)CC1`, the Ki in data set [3] amounted to 9 µM; in data set [6], 15.2 µM; in [8], 19 µM; in data set [9], 28 µM; in data set [12] it was 58 µM; in data set [13], 0.067 µM. Further, the results for the inhibitory constant (Ki) in data set [19] and in data set [27] were 190 µM and 52 µM, respectively. The 50% inhibitory concentration (IC50) came to 0.037 µM in data set [16], 0.39 µM in data set [21] and 0.26 µM in data set [25].
In the case of `CC1CNc2c(cccc2S(=O)(=O)N[C@@H](CCCNC(=N)N)C(=O)N2CCC(C)C[C@@H]2C(=O)O)C1` (single isomer, unassigned) [ARGATROBAN], the half-inhibitory concentration (IC50) amounted to 0.062 µM in data set [16], 0.66 µM in [21] and 0.42 µM in data set [25].
For the compound `Cc1c(C)c(S(=O)(=O)N[C@H](Cc2cccc(C(=N)N)c2)C(=O)N2CCN(S(C)(=O)=O)CC2)c(C)c2c1OC(C)(C)CC2`, the inhibition constant (Ki) worked out at 180 µM in data set [6]; 41 µM in [8]; 58 µM in [9]; 97 µM in [12]; 0.0053 µM in [30]; 0.32 µM in data set [13]. Moreover, the values for the inhibition constant Ki in data set [19] and in data set [27] were 470 µM and over 1000 µM, respectively.
For `CN(C)C(=O)N1CCN(C(=O)[C@@H](Cc2cccc(C(=N)N)c2)NS(=O)(=O)c2ccc3ccccc3c2)CC1`, the inhibitory constant (Ki) turned out to be 4.9 µM in data set [3]; 13.5 µM in data set [6]; 16 µM in data set [8]; 28 µM in data set [9]; 7.3 µM in data set [12]; 0.004 µM in data set [30]. Besides, the inhibition constant Ki in [13] is 0.097 µM; in data set [19], over 1000 µM; in data set [27], 61 µM. Also, the IC50 in data set [16] was determined as 0.042 µM; in data set [21], 0.72 µM; in [25] it was 0.39 µM.
In turn, `CC1CCN(C(=O)[C@@H](Cc2cccc(C(=N)N)c2)NS(=O)(=O)c2ccc3ccccc3c2)CC1` registered a Ki in [31] of 0.0025 µM.
For the compound `CN1CCN(C(=O)[C@@H](Cc2cccc(C(=N)N)c2)NS(=O)(=O)c2ccc3ccccc3c2)CC1`, the inhibition constant (Ki) in data set [3] was found to be 30 µM; in data set [6], 94 µM; in [8], 19 µM; in data set [30], 0.016 µM; in data set [32] it was 35 µM; in data set [33] it was 110 µM. Further, the results for the inhibitory constant (Ki) in data set [13], in [19] and in data set [27] were 0.47 µM, over 1000 µM and 280 µM, respectively. For the same compound, the 50% inhibitory concentration (IC50) in [16] came out at 0.22 µM; in [21], 1.8 µM; in data set [25], 1.2 µM.
Turning to `N=C(N)c1cccc(C[C@@H](NS(=O)(=O)c2ccc3ccccc3c2)C(=O)N2CCN(C=O)CC2)c1`, the inhibition constant Ki is 3.3 µM in data set [3]; 10.3 µM in data set [6]; 9.7 µM in data set [8]; 34 µM in data set [9]; 3.3 µM in data set [12]; 0.023 µM in data set [30]. The Ki is 0.073 µM in data set [13], 110 µM in data set [19] and 53 µM in data set [27]. Moreover, the values for the IC50 in data set [16], in data set [21] and in [25] were 0.063 µM, 0.7 µM and 0.35 µM, respectively.
In the case of `CC1(C)C2CCC1(CCS(=O)(=O)N[C@H](Cc1cccc(C(=N)N)c1)C(=O)N1CCN(S(C)(=O)=O)CC1)C(=O)C2` (some centres undefined), the Ki in data set [3] came out at 14 µM; in data set [6], 33 µM; in [8], 1.1 µM; in [9], 49 µM; in [12], 22 µM; in data set [30] it was 0.012 µM. In addition, the inhibition constant (Ki) in data set [13] is 0.22 µM; in [19] it was 20 µM; in data set [27] it was 55 µM.
